Experimental data reported in patent publication US9730944B2, “Antiviral activity of novel bicyclic heterocycles” (priority 2010, dated 2017).
Values after ≈ are worked out from the molar mass of the structure shown. Read-outs that look alike come from different tables or passages of the source.

What was measured:
[1] = system: poliovirus (PV type 2); assay: microbe, parasite or virus in culture; type: cell-based; details: Enterovirus C, read-out: PV-2 EC50
[2] = system: poliovirus (PV type 1); assay: microbe, parasite or virus in culture; type: cell-based; details: Enterovirus C, read-out: PV-1 EC50
[3] = in vitro; details: African green monkey, PV CC50
[4] = system: poliovirus (PV type 3); assay: microbe, parasite or virus in culture; type: cell-based; details: Enterovirus C, read-out: PV-3 EC50
[5] = Cytotoxicity in HCV-1a replicon cells, Promega CellTiter-Glo cell viability assay
[6] = system: genotype 1a H-77 replicon; assay: HCV-1a replicon potency in RLuc-1 cells, bioluminescence; type: cell-based; details: for EC50: Hepatitis C virus, 72 h, read-out: HCV-1a Replicon EC50 (μM); for HCV-1a Replicon Selectivity Index: CC50/EC50, genotype 1a replicon
[7] = in vitro; details: human, PV CC50
[8] = Cytostatic/cytotoxic effect in Hela Rh cells (rhinovirus methodology, MTS); details: human, CC50, Hela Rh cells
[9] = system: HIV-2 strain (ROD); assay: Inhibition of replication of HIV-2 (ROD strain) in MT-4 cells, MTT assay; type: cell-based; details: Human immunodeficiency virus 2, MT4, 120 h; MT-4 cells, MTT assay, five days after infection, 50% protection from cytopathic effect; read-out: EC50 (μM) HIV-2 (ROD)
[10] = in vitro; details: human
[11] = system: HIV-1 strain IIIB; assay: Inhibition of replication of HIV-1 (IIIB strain) in MT-4 cells, MTT assay; type: cell-based; details: Human immunodeficiency virus 1, IIIB, MT4, 120 h; MT-4 cells, MTT assay, five days after infection, 50% protection from cytopathic effect; read-out: EC50 (μM) HIV-1 (IIIB)

| Compound | EC50 ([1]; HeLa) | EC50 ([1]; Vero) | EC50 ([2]; HeLa) | EC50 ([2]; Vero) | CC50 [3] | EC50 ([4]; HeLa) | EC50 ([4]; Vero) | CC50 at 72 h [5] | EC50 [6] | CC50 [7] | CC50 [8] | HCV-1a Replicon Selectivity Index [6] | EC50 [9] | CC50 [10] | EC50 [11] |
| --- | --- | --- | --- | --- | --- | --- | --- | --- | --- | --- | --- | --- | --- | --- | --- |
| COCc1nc2c(N3CCN(C(=O)COc4ccc(Cl)cc4)CC3)nc(N)nc2o1 [Example 186, 5-amino-7-[4-(4-chlorophenoxyacetyl)piperazin-1-yl]-2-methoxylmethyloxazolo[5,4-d]pyrimidine] | 9.42 µg/mL (≈ 21.8 µM) | 2.96 µg/mL (≈ 6.84 µM) | 3.16 µg/mL (≈ 7.3 µM) | 1.07 µg/mL (≈ 2.47 µM) | 95.2 µg/mL (≈ 220 µM) | 3.21 µg/mL (≈ 7.42 µM) | 10.7 µg/mL (≈ 24.7 µM) | > 44.4 µM | > 44.4 µM | > 50 µg/mL | – | – | – | – | – |
| Cc1ccc(-c2nc3c(N4CCN(C(=O)COc5ccc(Cl)cc5)CC4)nc(N)nc3s2)cc1 [Example 295, 1-(4-(5-amino-2-p-tolylthiazolo[5,4-d]pyrimidin-7-yl)piperazin-1-yl)-2-(4-chlorophenoxy)ethanone] | – | – | – | – | – | – | – | – | – | – | > 50 µg/mL | – | – | – | – |
| Nc1nc(N2CCN(C(=O)COc3ccc(Cl)cc3)CC2)c2nc(C3CCCCC3)oc2n1 [Example 187, 5-amino-2-cyclohexyl-7-[4-(4-chlorophenoxyacetyl)piperazin-1-yl]oxazolo[5,4-d]pyrimidine] | > 50 µg/mL | ≥ 50 µg/mL | > 50 µg/mL | > 50 µg/mL | 118 µg/mL (≈ 250 µM) | > 50 µg/mL | > 50 µg/mL | 24.3 µM | 19 µM | > 50 µg/mL | – | 1.3 | – | – | – |
| Nc1nc(N2CCN(C(=O)COc3ccc(Cl)cc3)CC2)c2nc(CCc3ccccc3)oc2n1 [Example 189, 5-amino-2-(2-phenylethyl)-7-[4-(4-chlorophenoxyacetyl)piperazin-1-yl]oxazolo[5,4-d]pyrimidine] | 1.15 µg/mL (≈ 2.33 µM) | 0.4 µg/mL (≈ 0.811 µM) | 1.14 µg/mL (≈ 2.31 µM) | 0.86 µg/mL (≈ 1.74 µM) | > 150 µg/mL | > 50 µg/mL | 1.19 µg/mL (≈ 2.41 µM) | 40.5 µM | 20.6 µM | > 50 µg/mL | – | 2.0 | – | – | – |
| Cc1cccc(NC(=O)N2CCN(c3nc(N)nc4sc(-c5ccc(F)cc5)cc34)CC2)c1 [Example 359, 4-(2-amino-6-(4-fluorophenyl)thieno[2,3-d]pyrimidin-4-yl)-N-m-tolylpiperazine-1-carboxamide] | 0.41 µg/mL (≈ 0.886 µM) | 0.21 µg/mL (≈ 0.454 µM) | 0.94 µg/mL (≈ 2.03 µM) | 0.43 µg/mL (≈ 0.93 µM) | > 150 µg/mL | 1.07 µg/mL (≈ 2.31 µM) | 0.73 µg/mL (≈ 1.58 µM) | – | – | > 50 µg/mL | – | – | 10.4 µM | 140 µM | 6.18 µM |
| CC(c1ccc(F)cc1)c1nc2c(N3CCN(C(=O)COc4ccc(Cl)cc4)CC3)nc(N)nc2s1 (centres unmarked) [Example 66, 1-(4-(5-amino-2-(1-(4-fluorophenyl)ethyl)thiazolo[5,4-d]pyrimidin-7-yl)piperazin-1-yl)-2-(4-chlorophenoxy)ethanone] | ≥ 50 µg/mL | 0.11 µg/mL (≈ 0.209 µM) | > 50 µg/mL | 0.29 µg/mL (≈ 0.55 µM) | 130 µg/mL (≈ 246 µM) | > 50 µg/mL | 0.56 µg/mL (≈ 1.06 µM) | – | – | > 50 µg/mL | – | – | > 50 µM | > 50 µM | > 50 µM |
| Nc1nc(N2CCN(C(=O)COc3ccc(Cl)cc3)CC2)c2nc(-c3ccc(F)cc3)[nH]c2n1 [Example 389, 1-(4-(2-amino-8-(4-fluorophenyl)-9H-purin-6-yl)piperazin-1-yl)-2-(4-chlorophenoxy)ethanone] | 16.7 µg/mL (≈ 34.6 µM) | ≥ 50 µg/mL | > 16.7 µg/mL | > 50 µg/mL | > 150 µg/mL | 37.6 µg/mL (≈ 78 µM) | > 50 µg/mL | > 44.4 µM | > 44.4 µM | > 50 µg/mL | – | – | – | – | – |
| COCCNC(=O)c1nc(N2CCN(C(=O)COc3ccc(Cl)cc3)CC2)c2cc(-c3ccc(F)cc3)sc2n1 [Example 356, 4-(4-(2-(4-chlorophenoxy)acetyl)piperazin-1-yl)-6-(4-fluorophenyl)-N-(2-methoxyethyl)thieno[2,3-d]pyrimidine-2-carboxamide] | ≥ 50 µg/mL | ≥ 50 µg/mL | > 50 µg/mL | > 50 µg/mL | 108 µg/mL (≈ 185 µM) | > 50 µg/mL | > 50 µg/mL | – | – | > 50 µg/mL | – | – | > 155 µM | > 155 µM | > 155 µM |
| Nc1nc(N2CCN(C(=O)COc3ccc(Cl)cc3)CC2)c2nc(CCOc3ccc(F)cc3)sc2n1 [Example 48, 1-(4-(5-amino-2-(2-(4-fluorophenoxy)ethyl)thiazolo[5,4-d]pyrimidin-7-yl)piperazin-1-yl)-2-(4-chlorophenoxy)ethanone] | 0.36 µg/mL (≈ 0.663 µM) | 0.082 µg/mL (≈ 0.151 µM) | 0.35 µg/mL (≈ 0.645 µM) | 0.11 µg/mL (≈ 0.203 µM) | > 150 µg/mL | 0.97 µg/mL (≈ 1.79 µM) | 0.36 µg/mL (≈ 0.663 µM) | – | – | 49.4 µg/mL (≈ 91 µM) | – | – | 5.12 µM | 11.7 µM | 0.63 µM |
| O=C(COc1ccc(Cl)cc1)N1CCN(c2ncnc3oc(Cc4ccc(F)cc4)nc23)CC1 [Example 170, 2-(4-chlorophenoxy)-1-(4-(2-(4-fluorobenzyl)oxazolo[5,4-d]pyrimidin-7-yl)piperazin-1-yl)ethanone] | ≥ 50 µg/mL | 1.76 µg/mL (≈ 3.65 µM) | > 50 µg/mL | > 50 µg/mL | 105 µg/mL (≈ 218 µM) | > 50 µg/mL | > 50 µg/mL | – | – | > 50 µg/mL | – | – | > 50 µM | > 50 µM | 4.03 µM |
| Nc1nc(N2CCN(C(=O)COc3ccc(Cl)cc3)CC2)c2nc(CCc3ccc(F)cc3)sc2n1 [Example 49, 1-(4-(5-amino-2-(4-fluorophenethyl)-thiazolo[5,4-d]pyrimidin-7-yl)piperazin-1-yl)-2-(4-chlorophenoxy)ethanone] | 0.13 µg/mL (≈ 0.247 µM) | 0.21 µg/mL (≈ 0.398 µM) | 0.13 µg/mL (≈ 0.247 µM) | 0.13 µg/mL (≈ 0.247 µM) | 101 µg/mL (≈ 192 µM) | > 50 µg/mL | 1.17 µg/mL (≈ 2.22 µM) | > 44.4 µM | 42.1 µM | > 50 µg/mL | – | >1.1 | > 7.06 µM | > 50 µM | 1.13 µM |
| Cc1nc(N2CCN(C(=O)COc3ccc(Cl)cc3)CC2)c2cc(-c3ccc(F)cc3)sc2n1 [Example 325, 2-(4-chlorophenoxy)-1-(4-(6-(4-fluorophenyl)-2-methylthieno[2,3-d]pyrimidin-4-yl)piperazin-1-yl)ethanone] | ≥ 50 µg/mL | > 50 µg/mL | > 50 µg/mL | > 50 µg/mL | 67.8 µg/mL (≈ 136 µM) | > 50 µg/mL | > 50 µg/mL | – | – | > 50 µg/mL | – | – | > 208 µM | 208 µM | > 208 µM |
| Cc1cccc(NC(=O)N2CCN(c3nc(-c4ccccc4)nc4sc(-c5ccc(F)cc5)cc34)CC2)c1 [Example 360, 4-(6-(4-fluorophenyl)-2-phenylthieno[2,3-d]pyrimidin-4-yl)-N-m-tolylpiperazine-1-carboxamide] | ≥ 50 µg/mL | 10.5 µg/mL (≈ 20.1 µM) | > 50 µg/mL | > 50 µg/mL | 93.4 µg/mL (≈ 178 µM) | > 50 µg/mL | > 50 µg/mL | – | – | > 50 µg/mL | – | – | > 239 µM | > 239 µM | > 239 µM |
